Assay results as given in patent publication US20170298051A1, “ACTIVATOR OF ADIPONECTIN RECEPTOR” (THE UNIVERSITY OF TOKYO, priority 2013, published 2017).

How the values were obtained:
AdipoR1 = molecular target: T1, AdipoR1 (Mus musculus, UniProt Q91VH1); experiment: Measurement of AMPK phosphorylation ability (Assay 1), differentiated C2C12 cells, Western blotting; type: cell-based; details: 10 μM, 10 minutes
T1 construct: C2C12 cells (ATCC; CRL-1772, medium; host or cells: differentiated C2C12
T1 sequence (Q91VH1 1-375): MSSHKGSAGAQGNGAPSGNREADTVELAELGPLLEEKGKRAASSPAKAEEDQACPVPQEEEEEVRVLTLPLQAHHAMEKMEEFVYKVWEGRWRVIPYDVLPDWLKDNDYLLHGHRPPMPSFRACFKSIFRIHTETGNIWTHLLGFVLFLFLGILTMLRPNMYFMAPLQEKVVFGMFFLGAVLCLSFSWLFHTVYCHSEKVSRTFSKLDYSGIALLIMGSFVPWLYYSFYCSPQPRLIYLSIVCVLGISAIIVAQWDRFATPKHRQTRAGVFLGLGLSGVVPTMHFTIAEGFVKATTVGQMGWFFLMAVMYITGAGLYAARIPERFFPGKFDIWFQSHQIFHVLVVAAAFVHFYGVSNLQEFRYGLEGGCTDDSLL
Description: The AMPK phosphorylation ability of the respective compounds according to the present invention was measured by using differentiated C2C12 cells or HEK 293T cells.
C2C12 cells (ATCC; CRL-1772, medium; DMEM, 10% FBS) were cultured in a 12- or 24-well plate until they reached 100% confluency (37° C., 5% CO2).
The medium was changed to 2.5% Horse Serum (HS) and differentiation was started. The medium (DMEM, 2.5% HS) was replaced every three days.
After starvation, a test compound listed in Table 12 (concentration: 10 μM) was added thereto, and after 10 minutes, the medium was discarded and the plate was frozen with liquid nitrogen.
To the 12- or 24-well cell plate which had been frozen was added 100 or 150 μL of Cell lysis buffer pH 7.4 (50 mM HEPES (pH 7.4), 2 mM sodium orthovanadate, 10 mM sodium pyrophosphate, 10 mM NaF, 2 mM EDTA, 2 mM EGTA, 0.1% (v/v) NP-40, 0.2 mM PMSF), and the cells were scraped off with a cell scraper, suspended and transferred into a micro centrifugal tube. And then, the cells were ultrasonically crushed (1 second×3 times) with a sonicator. Centrifugation was performed at 4° C. at 15,000 rpm for 15 minutes, and the supernatant was recovered into a new tube.
To 100 μL of the supernatant was added 25 μL of 5× sample buffer (280 mM Tris-HCl (pH 6.9), 40% glycerol, 10% (3-mercaptoethanol, 13% SDS, a small amount of bromophenol blue) and mixed together. The rest of the supernatant was used for protein quantification, and the protein concentrations were uniformed by adding 1× sample buffer depending on the concentration of each sample.
An electrophoresis chamber was filled with 1× SDS buffer (25 mM Tris-HCl, 250 mM glycine, 0.1% SDS), and the sample was applied to a well of polyacrylamide gel. Electrophoresis was performed until the bromophenol blue in the sample reached to the bottom of the gel.
A filter paper was soaked in 1× Transfer buffer sufficiently, above which the PVDF membrane and the gel after electrophoresis were stacked in this order, and thereabove a filter paper which had been soaked in 1× Transfer buffer sufficiently was further stacked, from which an air was removed and the resultant was set in semi-dry type transfer apparatus and transferred (7V, 35 minutes).
An unnecessary portion of the blotted membrane was cutoff, and the rest was immediately soaked in blocking buffer (5% skimmed milk in Rinse buffer), and shaken at room temperature at 40 rpm for 3 hours.
After blocking, the membrane was transferred into Rinse buffer, and washed at room temperature for 10 minutes while shaking. The membrane was soaked in a primary antibody solution (AMPK alpha Antibody (Cell signaling; #2532) 1/1,000 in Rinse buffer, Phospho-AMPK alpha (Thr172) (40H9) antibody (Cell signaling; #2535) 1/1,000 in Rinse buffer), and shaken at 4° C. at 40 rpm overnight.
The membrane was soaked in a secondary antibody solution (goat anti-rabbit IgG-HRP Antibody (Santa Cruz; sc-2030) 1/2,000 in Rinse buffer), and shaken at room temperature at 40 rpm for 1 hour.
After the membrane was washed for 45 minutes in the same way as after the primary antibody reaction, the membrane was soaked in a chemiluminescent reaction solution (ECL Western Blotting Detection Reagents, GE Healthcare) for about 1 minute. An excess of the reaction solution was removed, and then the membranes were arranged on a transparent film and sandwiched with it, with which an X-ray film was exposed in a darkroom (for about several seconds to 60 seconds) to develop the film.
The X-ray film was scanned to take the image, for which the band was measured by using the image analysis software “Image J” to determine the respective amounts of pAMPK and AMPK.

rhodopsin receptor = experiment: Surface plasmon resonance, rhodopsin receptor control; type: binding; details: SPR
[1] = system: AdipoR1-AMPK pathway and AdipoR2-PPARα pathway in the liver; experiment: Liver: gene expression, TG content, TBARS in mice fed a HF diet; type: in vivo
Description: (§1) Real-time PCR was carried out according to the method described previously^a,b,c. Total RNA was prepared from cells or tissues with Trizol (Invitrogen) according to the manufacturer's instructions. We used a real-time PCR method to quantify the mRNAs^19, with slight modifications.
(§2) Skeletal muscle homogenates were extracted, and tissue triglyceride content was determined as described previously^a-c, with some modifications. To investigate whether oxidative stress was increased, we measured lipid peroxidation, a marker of oxidative injury, as represented by plasma thiobarbituric acid reactive substance (TBARS) as described previously^4. Briefly, tissue samples were homogenized in a buffer solution containing 50 mM Tris-HCl (pH 7.4) and 1.15% KCl, and then centrifuged. The supernatant was used for the assay. The levels of lipid peroxidation in tissue homogenate and plasma were measured in terms of the amount of TBARS using the LPO test (Wako Pure Chemical Industries).

[2] = system: white adipose tissue (WAT); experiment: White adipose tissue (WAT): inflammation and macrophage markers in mice fed a HF diet; type: in vivo
Description: as §1, §2

[3] = Adipor1/r2 double-knockout mice fed with a HF diet

pAMPK/AMPK (%) (AdipoR1): 84.33%
SMILES: O=C(COc1ccc(C(=O)c2ccccc2)cc1)NC1CCN(Cc2ccccc2)CC1 [Compound 73, 2-(4-benzoyl-phenoxy)-N-(1-benzylpiperidin-4-yl)acetamide]
reaction with rhodopsin receptor (control) (rhodopsin receptor): does not react a rhodopsin receptor at all
effect on TG content and TBARS in the liver [1, 3]: such effect was not observed
expression level of genes encoding pro-inflammatory cytokines in the liver [1, 3]: such effect was not observed
expressions of Ppargc1a and G6pc in the liver [1, 3]: such effect was not observed
expression levels of Pparα and its target genes (Acox1, Ucp2, Cat) in the liver ([1]; WT mice fed a HF diet): increased the expression levels
TG content in the liver ([1]; WT mice fed with a HF diet): significantly reduced TG content
expression level of genes encoding pro-inflammatory cytokines (Tnf, Ccl2) in the liver ([1]; WT mice fed with a HF diet): reduced the expression level
expressions of Ppargc1a and G6pc in the liver ([1]; WT mice fed with a HF diet): significantly decreased the expressions
oxidative stress, as measured by TBARS, in the liver ([1]; WT mice fed with a HF diet): significantly reduced
changes of macrophage markers in the WAT ([2]; Adipor1/r2 double-knockout mice): these changes were not observed
expression levels of genes encoding pro-inflammatory cytokines in the WAT [2, 3]: such effect was not observed
expression levels of genes encoding pro-inflammatory cytokines (Tnf, Il6, Ccl2) in the WAT ([2]; WT mice fed with a HF diet): reduced the expression levels
levels of macrophage markers such as TBARS and F4/80 (Emr1), M1 marker CD11c (Itgax) in the WAT ([2]; WT mice fed with a HF diet): reduced the levels
levels of markers for alternatively activated M2 macrophages such as CD206 (Mrc1) in the WAT ([2]; WT mice fed with a HF diet): not affect the levels
